Data taken from PubChem BioAssay (NCI).
Where “and” joins values, the source holds several entries; their conditions need not be identical. Equal values may be shown once.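 Each compound was tested at five concentrations against cells in 96-well plates for 48 hours. Here, GI50 denotes the concentration required for 50% inhibition of growth. TGI: total growth inhibition.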

Key:
Assay in all cases: NCI anticancer screen, dose series, 48 h
[1] = tested on: SNB-75 CNS
[2] = tested on: EKVX NSCLC
[3] = tested on: COLO 205 colon
[4] = tested on: OVCAR-5 ovarian
[5] = tested on: SNB-19 CNS
[6] = tested on: HCC-2998 colon
[7] = tested on: K-562 leukemia
[8] = tested on: HOP-62 NSCLC
[9] = tested on: OVCAR-8 ovarian
[10] = tested on: SR leukemia

Compound: CC(=O)/C=C/c1c[nH]c(=O)[nH]c1=O
- TGI [1]: 681 µM
- TGI [2]: 570 µM
- TGI [3]: 395 µM
- TGI [4]: 618 µM
- TGI [5]: 903 µM
- TGI [6]: 480 µM
- TGI [7]: 967 µM
- TGI [8]: 765 µM
- TGI [9]: 873 µM

Compound: O=C(c1ccc(Cl)cc1)N(C(=S)N1CCN(c2ccccc2)CC1)c1ccccc1
- TGI [1]: > 100 µM
- TGI [3]: > 100 µM
- TGI [10]: > 100 µM
- TGI [4]: > 100 µM
- TGI [5]: > 100 µM
- TGI [7]: > 100 µM
- TGI [8]: > 100 µM
- TGI [9]: > 100 µM

Compound: CCCCN(CCCC)c1ccc(N=Nc2ccc(S(=O)(=O)O)cc2)cc1
- TGI [1]: 39.2 µM
- TGI [2]: > 100 µM
- TGI [3]: 37.8 µM
- TGI [4]: > 100 µM
- TGI [5]: > 100 µM
- TGI [6]: 73.7 µM
- TGI [7]: > 100 µM
- TGI [9]: 44.9 µM

Compound: COc1ncc(C#CC(=O)c2ccccc2OC)c(OC)n1
- TGI [1]: 10.2 µM
- TGI [2]: 10.3 µM
- TGI [3]: 4.12 µM
- TGI [4]: 8.23 µM
- TGI [5]: 29.3 µM
- TGI [6]: 13 µM
- TGI [7]: > 42.9 µM
- TGI [8]: 40.5 µM
- TGI [9]: 5.05 µM

Compound: O=C(/C(Cl)=C/c1ccccc1)c1ccccc1
- TGI [1]: 26.9 µM
- TGI [2]: 25.6 µM
- TGI [10]: 6.47 µM
- TGI [4]: 19.8 µM
- TGI [5]: 29.3 µM
- TGI [6]: 12.9 µM
- TGI [7]: > 26 µM
- TGI [8]: 41.5 µM
- TGI [9]: 17.1 µM

Compound: CC1CSc2nc3[nH]c(=S)[nH]c3c(=O)n2C1 (stereo not drawn)
- TGI [1]: > 100 µM
- TGI [2]: > 100 µM
- TGI [3]: > 100 µM
- TGI [4]: > 100 µM
- TGI [5]: > 100 µM
- TGI [6]: > 100 µM
- TGI [7]: > 100 µM
- TGI [8]: > 100 µM
- TGI [9]: > 100 µM

Compound: Cc1ccc(NNc2cc(=O)[nH]c(=O)[nH]2)cc1Cl
- TGI [1]: > 100 µM
- TGI [3]: 30.6 µM
- TGI [10]: > 100 µM
- TGI [4]: > 100 µM
- TGI [5]: > 100 µM
- TGI [6]: 29.8 µM
- TGI [7]: > 100 µM
- TGI [8]: > 100 µM

Compound: C/C=C/OC1C(C2COC(C)(C)O2)OC2OC(C)(C)OC21 (stereo not drawn)
- TGI [1]: > 100 µM
- TGI [2]: > 100 µM
- TGI [10]: > 100 µM
- TGI [4]: > 100 µM
- TGI [5]: > 100 µM
- TGI [6]: > 100 µM
- TGI [7]: > 100 µM
- TGI [8]: > 100 µM
- TGI [9]: > 100 µM

Compound: C=CCC1(O)c2cccc(O)c2C(=O)c2cccc(O)c21 (stereo not drawn)
- TGI [1]: 52 µM
- TGI [2]: 60.1 µM
- TGI [10]: 36.3 µM
- TGI [4]: > 100 µM
- TGI [6]: 30.3 µM
- TGI [7]: > 100 µM
- TGI [8]: 49.7 µM
- TGI [9]: > 100 µM

Compound: C[C@@H]1CCN(C(=O)CC#N)C[C@@H]1N(C)c1ncnc2[nH]ccc12
- GI50 [1]: 12.9 µM
- TGI [1]: 84.5 µM
- GI50 [2]: 17.6 µM
- TGI [2]: > 100 µM
- GI50 [3]: > 100 µM
- TGI [3]: > 100 µM
- GI50 [4]: 27.4 µM
- TGI [4]: > 100 µM
- GI50 [6]: > 100 µM
- TGI [6]: > 100 µM
- GI50 [8]: 40.6 µM
- TGI [8]: > 100 µM
- GI50 [9]: > 100 µM
- TGI [9]: > 100 µM

Compound: CC(=O)NC1CCC(NC(=O)OC(C)(C)C)C(NC(=O)OC(C)(C)C)C1 (stereo not drawn)
- TGI [1]: > 100 µM
- TGI [3]: > 100 µM
- TGI [10]: > 100 µM
- TGI [4]: > 100 µM
- TGI [5]: > 100 µM
- TGI [6]: > 100 µM
- TGI [7]: > 100 µM
- TGI [8]: > 100 µM
- TGI [9]: > 100 µM

Compound: CNC(=O)CNC(=O)CCC(=O)N(C)C
- TGI [1]: > 100 µM
- TGI [2]: > 100 µM
- TGI [3]: > 100 µM
- TGI [4]: > 100 µM
- TGI [5]: > 100 µM
- TGI [6]: > 100 µM
- TGI [7]: > 100 µM
- TGI [8]: > 100 µM
- TGI [9]: > 100 µM

Compound: C/C(=N/NC(=S)N(Cc1ccccn1)Cc1ccccn1)c1cnccn1
- TGI [1]: 17.2 µM
- TGI [2]: 7.4 µM
- TGI [10]: > 55.2 µM
- TGI [4]: 32.6 µM
- TGI [5]: 18.8 µM
- TGI [6]: > 43.4 µM
- TGI [7]: > 100 µM
- TGI [8]: 14.6 µM

Compound: Cc1ccc(NC(=S)NNC(=O)c2cc(-c3ccccc3)nc3ccccc23)cc1C
- TGI [1]: 56.5 µM
- TGI [3]: 34.2 µM
- TGI [10]: 36.4 µM
- TGI [4]: 76.9 µM
- TGI [5]: 93.2 µM
- TGI [6]: 35.2 µM
- TGI [7]: 79.5 µM
- TGI [8]: 54.8 µM
- TGI [9]: 44.5 µM

Compound: CC1(C)SC2C(NC(=O)Cc3ccccc3)C(=O)N2C1C(=O)O (stereo not drawn)
- TGI [1]: > 100 µM
- TGI [2]: > 100 µM
- TGI [3]: > 100 µM
- TGI [10]: > 100 µM
- TGI [4]: > 100 µM
- TGI [5]: > 100 µM
- TGI [7]: > 100 µM
- TGI [8]: > 100 µM
- TGI [9]: > 100 µM

Compound: CSc1nc(-c2cc3c(c(SC)n2)CCC3)cc2c1CCC2
- TGI [1]: > 100 µM
- TGI [2]: > 100 µM
- TGI [3]: > 100 µM
- TGI [4]: > 100 µM
- TGI [5]: > 100 µM
- TGI [6]: > 100 µM
- TGI [7]: > 100 µM
- TGI [8]: > 100 µM
- TGI [9]: > 100 µM

Compound: COc1ccc(S(=O)Cc2cc(OC)ccc2OC)cc1 (stereo not drawn)
- TGI [1]: > 100 µM
- TGI [2]: > 100 µM
- TGI [3]: > 100 µM
- TGI [4]: > 100 µM
- TGI [5]: > 100 µM
- TGI [6]: > 100 µM
- TGI [7]: > 100 µM
- TGI [8]: > 100 µM
- TGI [9]: > 100 µM

Compound: Cn1c2c(c3ccccc31)CC(=O)N1CCCCC1C21OCCO1 (stereo not drawn)
- TGI [1]: > 100 µM
- TGI [2]: > 100 µM
- TGI [3]: > 100 µM
- TGI [10]: > 100 µM
- TGI [4]: > 100 µM
- TGI [5]: > 100 µM
- TGI [6]: > 100 µM
- TGI [8]: > 100 µM
- TGI [9]: > 100 µM

Compound: CCC(/C=C/c1ccccc1)=N\NC(=S)N/N=C(/C=C/c1ccccc1)CC
- TGI [1]: > 100 µM
- TGI [2]: > 100 µM
- TGI [3]: > 100 µM
- TGI [10]: 91.3 µM
- TGI [5]: > 100 µM
- TGI [6]: > 100 µM
- TGI [7]: 98.8 µM
- TGI [8]: > 100 µM
- TGI [9]: 45.9 µM

Compound: O=[N+]([O-])c1cccc2nc3ccccc3c(NCCNCCO)c12
- GI50 [1]: 0.0132 µM
- TGI [1]: 0.0565 µM and 0.0397 µM
- GI50 [2]: 0.0306 µM
- TGI [2]: 0.286 µM and 0.181 µM
- TGI [3]: 0.0106 µM and 0.0213 µM
- TGI [4]: 0.088 µM and 0.0672 µM
- GI50 [5]: 10.2 nM
- TGI [6]: 0.0101 µM
- TGI [7]: 0.0448 µM
- TGI [8]: 0.0799 µM and 0.0174 µM
- TGI [9]: 0.158 µM and 0.0328 µM

Compound: COC(=O)CC1(O)C(C=C(C)C)C(C(=O)OC)C(=O)C(C(=O)OC)C1C(=O)OC (stereo not drawn)
- TGI [2]: > 100 µM
- TGI [3]: > 100 µM
- TGI [10]: > 100 µM
- TGI [4]: > 100 µM
- TGI [5]: > 100 µM
- TGI [6]: > 100 µM
- TGI [7]: > 100 µM
- TGI [8]: > 100 µM
- TGI [9]: > 100 µM

Compound: COC(=O)c1cc(C)ccc1CC(Cc1ccccc1C)C(=O)OC (stereo not drawn)
- TGI [1]: > 100 µM
- TGI [2]: 76.3 µM
- TGI [3]: > 100 µM
- TGI [5]: > 100 µM
- TGI [6]: > 100 µM
- TGI [7]: > 100 µM
- TGI [8]: > 100 µM
- TGI [9]: > 100 µM

Compound: Cc1ccc(-c2c(C#N)c(S)n(NS(=O)(=O)c3ccccc3)c(=O)c2C#N)cc1
- TGI [1]: 97.2 µM
- TGI [2]: > 100 µM
- TGI [3]: > 100 µM
- TGI [10]: 58.1 µM
- TGI [4]: > 100 µM
- TGI [5]: > 100 µM
- TGI [6]: > 100 µM
- TGI [7]: > 100 µM
- TGI [9]: 55.9 µM
